The record followed here is patent US7381824B2 (Agouron Pharmaceuticals, Inc., priority 2003, dated 2008).

Molecules are shown by their SMILES.

As a reminder, the Ki is a dissociation constant, usually derived from enzyme kinetics or from competition with a known ligand. Read a high Ki as lower affinity. The term IC50 denotes the concentration that gives 50% inhibition.

Assay [1] has as its target T1, human vascular endothelial growth factor receptor 2 (VEGF-R2) (Homo sapiens, UniProt P35968, DEL940-989/E990V).
T1 construct: VEGF-R2D50 contains residues 806-939 and 990-1171; made in house; host or cells: baculovirus/insect cell system
Put plainly: VEGF-R2 coupled spectrophotometric assay (FLVK, unphosphorylated VEGF-R2D50). It counts as biochemical. As to conditions: unphosphorylated VEGF-R2D50 (FLVK). The text has this: This construct determines the ability of a test compound to inhibit tyrosine kinase activity. A construct (VEGF-R2D50) of the cytosolic domain of human vascular endothelial growth factor receptor 2 (VEGF-R2) lacking the 50 central residues of the 68 residues of the kinase insert domain was expressed in a baculovirus/insect cell system. Of the 1356 residues of full-length VEGF-R2, VEGF-R2D50 contains residues 806-939 and 990-1171, and also one point mutation (E990V) within the kinase insert domain relative to wild-type VEGF-R2. Autophosphorylation of the purified construct was performed by incubation of the enzyme at a concentration of […] in the presence of 3 mM ATP and 40 mM MgCl2 in 100 mM HEPES, pH 7.5, containing 5% glycerol and 5 mM DTT, at 4° C. for 2 h. […] See Parast et al., Biochemistry, 37, 16788-16801 (1998).
VEGF-R2 Assay: Coupled Spectrophotometric (FLVK-P) Assay
The production of ADP from ATP that accompanies phosphoryl transfer was coupled to oxidation of NADH using phosphoenolpyruvate (PEP) and a system having pyruvate kinase (PK) and lactic dehydrogenase (LDH). The oxidation of NADH was monitored by following the decrease of absorbance at 340 nm (e340=6.22 cm^−1 mM^−1) using a Beckman DU 650 spectrophotometer. Assay conditions for phosphorylated VEGF-R2D50 (indicated as FLVK-P in the tables below) were the following: 1 mM PEP; […] NADH; 50 units of LDH/mL; 20 units of PK/mL; 5 mM DTT; 5.1 mM poly(E4Y1); 1 mM ATP; and 25 mM MgCl2 in 200 mM HEPES, pH 7.5. Assay conditions for unphosphorylated VEGF-R2D50 (indicated as FLVK in the tables) were the following: 1 mM PEP; […] NADH; 50 units of LDH/mL; 20 units of PK/mL; 5 mM DTT; 20 mM poly(E4Y1); 3 mM ATP; and 60 mM MgCl2 and 2 mM MnCl2 in 200 mM HEPES, pH 7.5. Assays were initiated with 5 to 40 nM of enzyme. K1 values were determined by measuring enzyme activity in the presence of varying concentrations of test compounds. The percent inhibition at 50 nM (% inhibition @ 50 nM) was determined by linear least-squares regression analysis of absorbance as a function of time. The binding inhibitions were fitted to equation as described by Morrison. The data were analyzed using Enzyme Kinetic and Kaleidagraph software.

Assay [2] relates to human umbilical vein endothelial cells (HUVEC). Put plainly: HUVEC+VEGF proliferation assay. It counts as cell-based. As to conditions: Homo sapiens; VEGF-stimulated HUVEC proliferation, MTT, 72 hours. As to the method:
HUVEC+VEGF Proliferation Assay
This assay determines the ability of a test compound to inhibit the growth factor-stimulated proliferation of human umbilical vein endothelial cells (“HUVEC”). HUVEC cells (passage 3-4, Clonetics, Corp.) were thawed into EGM2 culture medium (Clonetics Corp) in T75 flasks. Fresh EGM2 medium was added to the flasks 24 hours later. Four or five days later, cells were exposed to another culture medium (F12K medium supplemented with 10% fetal bovine serum (FBS), […] endothelial cell growth supplement (ECGS), and 0.1 mg/mL heparin). Exponentially-growing HUVEC cells were used in experiments thereafter. Ten to twelve thousand HUVEC cells were plated in 96-well dishes in […] of rich, culture medium (described above). The cells were allowed to attach for 24 hours in this medium. The medium was then removed by aspiration and […] of starvation media (F12K+1% FBS) was added to each well. After 24 hours, […] of test agent dissolved in 1% DMSO in starvation medium or this vehicle alone was added into each treatment well; the final DMSO concentration was 0.1%. One hour later, […] of VEGF (30 ng/mL) in starvation media was added to all wells except those containing untreated controls; the final VEGF concentration was 6 ng/mL. Cellular proliferation was quantified 72 hours later by MTT dye reduction, at which time cells were exposed for 4 hours MTT (Promega Corp.). Dye reduction was stopped by addition of a stop solution (Promega Corp.) and absorbance at 595 nm was determined on a 96-well spectrophotometer plate reader.

T1 sequence (P35968 with tags, fused parts or gaps DEL940-989/E990V limits assumed): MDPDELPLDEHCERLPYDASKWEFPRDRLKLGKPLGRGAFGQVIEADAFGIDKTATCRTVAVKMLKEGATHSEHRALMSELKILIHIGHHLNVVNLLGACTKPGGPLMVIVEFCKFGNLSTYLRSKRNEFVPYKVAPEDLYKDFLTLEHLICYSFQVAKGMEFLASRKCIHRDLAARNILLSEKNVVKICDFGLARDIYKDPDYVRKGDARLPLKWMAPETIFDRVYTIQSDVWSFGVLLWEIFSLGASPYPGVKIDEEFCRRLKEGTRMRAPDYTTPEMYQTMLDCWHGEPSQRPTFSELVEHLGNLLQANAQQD

The compound `CNC(=O)c1c(C)oc2cc(Oc3ccnc4cc(Br)ccc34)ccc12` [Example 19, 6-[(7-bromoquinolin-4-yl)oxy]-N,2-dimethy-1-benzofuran-3-carboxamide] returned a Ki in assay [1] of 1 to 10 nM. For the same compound, the concentration for half-maximal inhibition (IC50) in assay [2] lay within 1 to 10 nM.
As to `CNC(=O)c1c(C)oc2cc(Oc3ccnc4cc(OCCN5CCCCC5)ccc34)ccc12` [Example 38, N,2-dimethyl-6-{[7-(2-piperidin-1-ylethoxy)quinolin-4-yl]oxy}-1-benzofuran-3-carboxamide], the Ki in assay [1] was 1 to 10 nM. In assay [2], the IC50 is less than 1 nM.
With `CCCCNC(=O)c1c(C)oc2cc(Oc3ccnc4cc(O)ccc34)ccc12` [Example 41, N-butyl-6-[(7-hydroxyquinolin-4-yl)oxy]-2-methyl-1-benzofuran-3-carboxamide], in assay [2], the concentration for half-maximal inhibition (IC50) was in the range of 1 to 10 nM.
Still for that read-out and setting: the value for `COc1ccc2c(Oc3ccc4c(C(=O)NCCCN5CCOCC5)c(C)sc4c3)ccnc2c1` [Example 62, 6-[(7-methoxyquinolin-4-yl)oxy]-2-methyl-N-(3-morpholin-4-ylpropyl)-1-benzothiophene-3-carboxamide] was greater than 10 nM; that for `CNC(=O)c1c(C)oc2cc(Oc3ccnc4cc(OCCN5CCCC5)ccc34)ccc12` [Example 35, N,2-dimethyl-6-{[7-(2-pyrrolidin-1-ylethoxy)quinolin-4-yl]oxy}-1-benzofuran-3-carboxamide] was less than 1 nM.
On the same count and under the same terms, the value for `Cc1oc2cc(Oc3ccnc4cc(OCCNC5CCC5)ccc34)ccc2c1C(=O)NC1CC1` [Example 100] was 1 to 10 nM.
The same measure, in the same setting: the value for `COc1ccc2c(Oc3ccc4c(C(=O)NCCCN5CCOCC5)c(C)oc4c3)ccnc2c1` [Example 64, 6-[(7-methoxyquinolin-4-yl)oxy]-2-methyl-N-(3-morpholin-4-ylpropyl)-1-benzofuran-3-carboxamide] was 1 to 10 nM; that for `COc1ccc2c(Oc3ccc4c(C(=O)NC(C)C)c(C)oc4c3)ccnc2c1` [Example 43, N-isopropyl-6-[(7-methoxyquinolin-4-yl)oxy]-2-methyl-1-benzofuran-3-carboxamide] was 1 to 10 nM; that for `COc1ccc2c(Oc3ccc4c(C(=O)Nc5ccccn5)c(C)oc4c3)ccnc2c1` [Example 40, 6-[(7-methoxyquinolin-4-yl)oxy]-2-methyl-N-pyridin-2-yl-1-benzofuran-3-carboxamide] was less than 1 nM.
In the case of `CNC(=O)n1c(C)cc2cc(Nc3ccnc4cc(-c5ccccn5)ccc34)ccc21` [Example 32], the IC50 in assay [2] was 1 to 10 nM.
For `CNC(=O)c1c(C)oc2cc(Oc3ccnc4cc(O)ccc34)ccc12` [Example 28, 6-[(7-hydroxyquinoline-4-yl)oxy]-N,2-dimethyl-1-benzofuran-3-carboxamide], the IC50 in assay [2] lay in the range of 1 to 10 nM.
The same measure, in the same setting: then `COc1ccc2c(Oc3ccc4c(C(=O)Nc5cc(C)cc(C)n5)c(C)oc4c3)ccnc2c1` [Example 108, N-(4,6-dimethylpyridin-2-yl)-6-[(7-methoxyquinolin-4-yl)oxy]-2-methyl-1-benzofuran-3-carboxamide], with 1 to 10 nM; and `CCCCNC(=O)c1c(C)oc2cc(Oc3ccnc4cc(OC)ccc34)ccc12` [Example 39, N-butyl-6-[(7-methoxyquinolin-4-yl)oxy]-2-methyl-1-benzofuran-3-carboxamide], with less than 1 nM.
The same measure, in the same setting: the value for `C=CCOc1ccc2c(Oc3ccc4c(C(=O)NC)c(C)oc4c3)ccnc2c1` [Example 42, 6-{[7-(allyloxy)quinolin-4-yl]oxy}-N,2-dimethyl-1-benzofuran-3-carboxamide] was less than 1 nM.
In assay [1], `Cc1oc2cc(Oc3ccnc4cc(OCCNC5CC5)ccc34)ccc2c1C(=O)NC1CC1` [Example 96, N-cyclopropyl-6-({7-[2-(cyclopropylamino)ethoxy]quinolin-4-yl}oxy)-2-methyl-1-benzofuran-3-carboxamide] displayed a Ki of less than 1 nM.
On to `COc1ccc2c(Oc3ccc4c(C(=O)NCCC(C)O)c(C)sc4c3)ccnc2c1` (stereo not shown) [Example 82, N-(3-hydroxybutyl)-6-[(7-methoxyquinolin-4-yl)oxy]-2-methyl-1-benzothiophene-3-carboxamide], for which the Ki in assay [1] is greater than 10 nM.
`Cc1cc(C)nc(NC(=O)c2c(C)oc3cc(Oc4ccnc5cc(O)ccc45)ccc23)c1` [Example 109, N-(4,6-dimethylpyridin-2-yl)-6-[(7-hydroxyquinolin-4-yl)oxy]-2-methyl-1-benzofuran-3-carboxamide]: in assay [2], the IC50 is greater than 10 nM.
For `COc1ccc2c(Oc3ccc4c(C(=O)NC5CC5)c(C)oc4c3)ccnc2c1` [Example 63, N-cyclopropyl-6-[(7-methoxyquinolin-4-yl)oxy]-2-methyl-1-benzofuran-3-carboxamide], the IC50 in assay [2] was less than 1 nM.
In assay [1], `CNC(=O)n1c(C)cc2cc(Nc3ccnc4cc(-c5cccnc5)ccc34)ccc21` [Example 12, N,2-dimethyl-5-[(7-pyridin-3-ylquinolin-4-yl)amino]-1H-indole-1-carboxamide] showed a Ki greater than 10 nM.
Compound `Cc1sc2cc(Oc3ccnc4cc(O)ccc34)ccc2c1C(=O)NC1CCCC1` [Example 56, N-cyclopentyl-6-[(7-hydroxyquinolin-4-yl)oxy]-2-methyl-1-benzothiophene-3-carboxamide] showed a Ki in assay [1] greater than 10 nM.
Same read-out and setting: then `Cc1oc2cc(Oc3ccnc4cc(OCCBr)ccc34)ccc2c1C(=O)NC1CC1` [Example 93, 6-{[7-(2-bromoethoxy)quinolin-4-yl]oxy}-N-cyclopropyl-2-methyl-1-benzofuran-3-carboxamide], with less than 1 nM.
In assay [1], `CNC(=O)c1c(C)n(C)c2cc(Oc3ccnc4cc(O)ccc34)ccc12` [Example 76] registered a Ki greater than 10 nM.
In assay [1], `CNC(=O)c1c(C)oc2cc(Oc3ccnc4cc(-c5nccs5)ccc34)ccc12` [Example 30] gave a Ki of less than 1 nM.
In assay [1], `CNC(=O)c1c(C)oc2cc(Oc3ccnc4cc(-c5ccncc5)ccc34)ccc12` [Example 7, N-2-dimethyl-6-[(7-pyridin-4-ylquinolin-4-yl)oxy]-1-benzofuran-3-carboxamide] had a Ki of less than 1 nM.
On the same count and under the same terms, then `CNC(=O)c1c(C)sc2cc(Oc3ccnc4cc(C(F)(F)F)ccc34)ccc12` [Example 60, N,2-dimethyl-6-{[7-(trifluoromethyl)quinolin-4-yl]oxy}-1-benzothiophene-3-carboxamide], with greater than 10 nM; and `COc1ccc2c(Oc3ccc4c(C(=O)NCCN(C)C)c(C)sc4c3)ccnc2c1` [Example 49, N-[2-(dimethylamino)ethyl]-6-[(7-methoxyquinolin-4-yl)oxy]-2-methyl-1-benzothiophene-3-carboxamide], with greater than 10 nM; and `CNC(=O)c1c(C)sc2cc(Oc3ccnc4ccc(O)cc34)ccc12` [Example 27, 6-[(6-hydroxyquinolin-4-yl)oxy]-N,2-dimethyl-1-benzothiophene-3-carboxamide], with greater than 10 nM.
In the case of `CNC(=O)c1c(C)sc2cc(Oc3ccnc4cc(-c5ncccn5)ccc34)ccc12` [Example 18, N,2-dimethyl-6-[(7-pyrimidin-2-ylquinolin-4-yl)oxy]-1-benzothiophene-3-carboxamide], the Ki in assay [1] is greater than 10 nM.
In assay [1], `Cc1oc2cc(Oc3ccnc4cc(OCCO)ccc34)ccc2c1C(=O)NC1CC1` [Example 92, N-cyclopropyl-2-methyl-6-({7-[2-hydroxy-ethoxy]quinolin-4-yl}oxy)-1-benzofuran-3-carboxamide] yielded a Ki of less than 1 nM.
